In PMC2759397 (Bioorganic & medicinal chemistry, 2009):

How the values were obtained:
μ opioid receptors [1] = target: T1, μ opioid receptors (Cavia porcellus, UniProt A0ACM8Q262); design: species or system guinea pig
μ opioid receptors [2] = target: T1, μ opioid receptors; design: species or system guinea pig; settings: read-out: Agonist activity (% inhibition of contraction at 1 µM), GPI/LMMP
opioid receptors = assay: Radioligand competition assay, [3H]diprenorphine, rat brain membranes; type: binding; settings: data not shown
δ opioid receptors = δ opioid receptors (Mus musculus, UniProt P32300); settings: read-out: Agonist activity (% inhibition of contraction at 1 µM), MVD
δ opioid receptors, sequence (P32300 whole entry): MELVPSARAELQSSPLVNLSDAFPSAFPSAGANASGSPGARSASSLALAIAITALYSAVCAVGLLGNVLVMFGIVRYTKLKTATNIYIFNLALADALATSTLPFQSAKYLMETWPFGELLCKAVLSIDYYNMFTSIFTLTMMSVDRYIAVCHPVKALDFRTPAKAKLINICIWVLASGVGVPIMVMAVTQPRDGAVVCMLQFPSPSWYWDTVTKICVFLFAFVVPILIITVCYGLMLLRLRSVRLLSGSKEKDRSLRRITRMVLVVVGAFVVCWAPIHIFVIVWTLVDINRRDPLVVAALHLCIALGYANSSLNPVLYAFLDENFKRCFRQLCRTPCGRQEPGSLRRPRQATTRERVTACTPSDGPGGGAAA

delta opioid receptors = delta opioid receptors (Mus musculus, UniProt P32300)
delta opioid receptors, sequence (P32300 whole entry): as above

T1 sequence (A0ACM8Q262 1-400): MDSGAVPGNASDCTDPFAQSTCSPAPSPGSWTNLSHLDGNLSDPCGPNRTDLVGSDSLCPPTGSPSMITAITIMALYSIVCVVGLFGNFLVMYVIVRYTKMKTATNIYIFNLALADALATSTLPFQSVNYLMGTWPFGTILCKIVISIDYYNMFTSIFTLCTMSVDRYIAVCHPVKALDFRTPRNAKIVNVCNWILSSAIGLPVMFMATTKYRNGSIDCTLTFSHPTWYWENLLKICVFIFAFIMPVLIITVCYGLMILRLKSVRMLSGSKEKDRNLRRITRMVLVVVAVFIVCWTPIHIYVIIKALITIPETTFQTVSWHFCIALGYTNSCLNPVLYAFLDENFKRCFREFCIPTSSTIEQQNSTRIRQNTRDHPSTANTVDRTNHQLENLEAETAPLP

Row | Compound | PL-017 Antagonism at 1 µM in the GPI/LMMP (μ opioid receptors [1]) | inhibition at 1 µM (μ opioid receptors [2]) [%] | inhibition constants against binding of [3H]diprenorphine (opioid receptors) | inhibition at 1 µM (δ opioid receptors) [%] | DPDPE Antagonism at 1 µM in the MVD (delta opioid receptors)
1 | COc1ccc2c(c1)c(CC(=O)O)c(C)n2C1CCN(CCc2ccccc2)CC1 [Compound 9f, [5-methoxy-2-methyl-1-(1-phenethyl-piperidin-4-yl)-1H-indol-3-yl]-acetic acid] | none at 1 µM | 6 | micromolar range | 0 | none at 1 µM
2 | COc1ccc2c(c1)c(CC(=O)O)c(C)n2C1CCN(C)CC1 [Compound 9d, [5-methoxy-2-methyl-1-(1-methyl-piperidin-4-yl)-1H-indol-3-yl]-acetic acid] | none at 1 µM | 0 |  | 2.8 | none at 1 µM
3 | Cc1c(CC(=O)O)c2ccccc2n1C1CCN(C)CC1 [Compound 9a, [2-methyl-1-(1-methyl-piperidin-4-yl)-1H-indol-3-yl]-acetic acid] | none at 1 µM | 0.7 |  | 17.9 | none at 1 µM
4 | Cc1c(CC(=O)O)c2ccccc2n1C1CCN(CCc2ccccc2)CC1 [Compound 9c, [2-methyl-1-(1-phenethyl-piperidin-4-yl)-1H-indol-3-yl]-acetic acid] | none at 1 µM | 3.1 | micromolar range | 19.5 | none at 1 µM
